Assays:
Aphis craccivora = test: Insecticidal activity against Aphis craccivora by immersing (mortality after 24 hours); assay type: in vivo; conditions: for Mortality (%) (500 ppm) Aphis craccivora / Aphis craccivora LC50 (ppm) / Aphis craccivora Mortality (%) (100 ppm): in vivo; for mortality at 500 ppm: Aphis craccivora, 24 h, read-out: Mortality (%) (500 ppm) Aphis craccivora
Procedure: Aphis, which belongs to Homoptera and has a piercing-sucking mouthpart, is a common insect for agricultural plant. Aphis craccivora was tested by the way of immersing.
Test method: exactly weighed various samples were independently added to N,N-dimethylformamide to form a 10 g/L stock solution. The mixture was diluted with 0.2 mL/L aqueous Triton X-100 solution to a concentration of 500 ug/mL. After stably sucking on bean sprout, the adult aphis without wings together with bean sprout was dipped into the dilution of 500 ug/mL, 100 ug/mL, 50 ug/mL, 25 ug/mL, 12.5 ug/mL, 6.25 ug/mL (LD50 was calculated), taken out after 5 seconds, and the excess dilution was sucked out with bibulous paper and the adult aphis without wings was incubated in clean vessel at a constant temperature of 23° C. Each concentration was repeated for 3 times and the control group contained 0.2 mL/L aqueous Triton X-100 solution. The number of killed aphis was counted after 24 hours to calculate the mortality.

Nilaparvata lugens = test: Insecticidal activity against Nilaparvata lugens by spraying (mortality after 24 hours); assay type: in vivo; conditions: for Mortality (%) (500 ppm) Nilaparvata lugens: spraying 2 ml, counted after 24 hours; for mortality at 500 ppm: Nilaparvata lugens, 24 h, read-out: Mortality (%) (500 ppm) Nilaparvata lugens
Procedure: Plant hopper, which belongs to Homoptera and has a piercing-sucking mouthpart, is a common insect for agricultural plant. Nilaparvata lugens was tested by the way of spraying.
Test method: the compound to be tested was exactly formulated into a solution having a certain concentration and clean water was used as a blank control. Each process was repeated for 3 tumblers (3 times). 2 ml of solution was sprayed uniformly to each tumbler by a mini manual sprayer. 10 Nilaparvata lugens were introduced to every sink 6 hours before spraying. Three series of experiments were conducted. The number of killed Nilaparvata lugens was counted after 24 hours to calculate the mortality.

| Structure (SMILES) | Mortality (%) (500 ppm) Aphis craccivora (Aphis craccivora) | Mortality (%) (500 ppm) Nilaparvata lugens (Nilaparvata lugens) | Aphis craccivora LC50 (ppm) (Aphis craccivora) | Aphis craccivora Mortality (%) (100 ppm) (Aphis craccivora) | also measured |
| --- | --- | --- | --- | --- | --- |
| COC1CC(c2ccccc2)C([N+](=O)[O-])=C2N(Cc3ccc(Cl)nc3)CCN21 (stereo not shown) [Compound 39] | 45% | 0% | – | – | – |
| CCOC1CC(O)N2CCN(Cc3ccc(Cl)nc3)C2=C1[N+](=O)[O-] (stereo not shown) [o] | – | – | 66.4 ppm | 82% | – |
| CC1C([N+](=O)[O-])=C2N(Cc3ccc(Cl)nc3)CCN2C(O)C1C (stereo not shown) [Compound 30, 1-((6-chloropyridin-3-yl)methyl)-6,7-dimethyl-8-nitro-1,2,3,5,6,7-hexahydroimidazo[1,2-a]pyridin-5-ol] | – | – | – | – | mortality at 500 ppm (Aphis craccivora): 100%; mortality at 500 ppm (Nilaparvata lugens): 100% |
| CCCOC1C(C)CC([N+](=O)[O-])=C2N(Cc3ccc(Cl)nc3)CCN21 (stereo not shown) [Compound 20] | 86% | 98% | – | – | – |
| CCC1C(C)C([N+](=O)[O-])=C2N(Cc3ccc(Cl)nc3)CCN2C1O (stereo not shown) [Compound 33] | 92% | 78% | – | – | – |
| CCOC1CC(C)C([N+](=O)[O-])=C2N(Cc3ccc(Cl)nc3)CCN21 (stereo not shown) [c] | – | – | 65.4 ppm | 67% | – |
| CCCCC1CC(O)N2CCN(Cc3ccc(Cl)nc3)C2=C1[N+](=O)[O-] (stereo not shown) [Compound 41] | 72% | 50% | – | – | – |
| COC1CC(O)N2CCN(Cc3ccc(Cl)nc3)C2=C1[N+](=O)[O-] (stereo not shown) [n] | – | – | 40.5 ppm | 96% | – |
| CCC1CC(OC(C)C)N2CCN(Cc3ccc(Cl)nc3)C2=C1[N+](=O)[O-] (stereo not shown) [Compound 23] | 65% | 95% | – | – | – |
| CCCC1CC(O)N2CCN(Cc3ccc(Cl)nc3)C2=C1[N+](=O)[O-] (stereo not shown) [i] | – | – | 75.2 ppm | 77% | – |
| COC1CC(C)(C)C([N+](=O)[O-])=C2N(Cc3ccc(Cl)nc3)CCN21 (stereo not shown) [Compound 32] | 100% | 100% | – | – | – |
| CCC1C(O)N2CCN(Cc3ccc(Cl)nc3)C2=C([N+](=O)[O-])C1(C)C (stereo not shown) [Compound 37] | 99% | 88% | – | – | – |
| CCOC1CC(C)C([N+](=O)[O-])=C2N(Cc3ccc(Cl)nc3)CCN21 (stereo not shown) [Compound 3, 1-((6-chloropyridin-3-yl)methyl)-5-ethoxy-7-methyl-8-nitro-1,2,3,5,6,7-hexahydroimidazo[1,2-a]pyridine] | – | – | – | – | mortality at 500 ppm (Aphis craccivora): 100%; mortality at 500 ppm (Nilaparvata lugens): 100% |
| COC1CC(O)N2CCN(Cc3cnc(Cl)s3)C2=C1[N+](=O)[O-] (stereo not shown) [Compound 44] | 100% | 97% | – | – | – |
| CC1CC(O)N2CCN(Cc3ccc(Cl)nc3)C2=C1[N+](=O)[O-] (stereo not shown) [a] | – | – | 31.5 ppm | 95.3% | – |
| COC1CC(O)N2CCN(Cc3ccc(Cl)nc3)C2=C1[N+](=O)[O-] (stereo not shown) [Compound 42, 1-((6-chloropyridin-3-yl)methyl)-7-methoxy-8-nitro-1,2,3,5,6,7-hexahydroimidazo[1,2-a]pyridin-5-ol] | – | – | – | – | mortality at 500 ppm (Aphis craccivora): 100%; mortality at 500 ppm (Nilaparvata lugens): 97% |
| CCOC1CC(O)N2CCN(Cc3ccc(Cl)nc3)C2=C1[N+](=O)[O-] (stereo not shown) [Compound 45] | 100% | 89% | – | – | – |
| COC1CC([N+](=O)[O-])=C2N(Cc3ccc(Cl)nc3)CCN2C1O (stereo not shown) [p] | – | – | 47.6 ppm | 93% | – |
| CC1CC(O)N2CCN(Cc3ccc(Cl)nc3)C2=C1[N+](=O)[O-] (stereo not shown) [Compound 1, 1-((6-chloropyridin-3-yl)methyl)-7-methyl-8-nitro-1,2,3,5,6,7-hexahydroimidazo[1,2-a]pyridin-5-ol] | – | – | – | – | mortality at 500 ppm (Aphis craccivora): 100%; mortality at 500 ppm (Nilaparvata lugens): 100% |
| COC1CC(C)C([N+](=O)[O-])=C2N(Cc3ccc(Cl)nc3)CCN21 (stereo not shown) [b] | – | – | 50.8 ppm | 84% | – |
| CCCOC1CC(C)C([N+](=O)[O-])=C2N(Cc3ccc(Cl)nc3)CCN21 (stereo not shown) [d] | – | – | 33.6 ppm | 75.4% | – |
| CC1CC(O)N2CCN(Cc3cnc(Cl)s3)C2=C1[N+](=O)[O-] (stereo not shown) [Compound 12, 1-((2-chlorothiazol-5-yl)methyl)-7-methyl-8-nitro-1,2,3,5,6,7-hexahydroimidazo[1,2-a]pyridin-5-ol] | – | – | – | – | mortality at 500 ppm (Aphis craccivora): 100%; mortality at 500 ppm (Nilaparvata lugens): 100% |
| COC1CC(C)C([N+](=O)[O-])=C2N(CC3CCOC3)CCN21 (stereo not shown) [Compound 16] | 45% | 67% | – | – | – |
| CCCC1CC(OCC)N2CCN(Cc3ccc(Cl)nc3)C2=C1[N+](=O)[O-] (stereo not shown) [Compound 25] | 96% | 100% | – | – | – |

| Structure (SMILES) | Mortality (%) (500 ppm) Aphis craccivora (Aphis craccivora) | Mortality (%) (500 ppm) Nilaparvata lugens (Nilaparvata lugens) | Aphis craccivora LC50 (ppm) (Aphis craccivora) | Aphis craccivora Mortality (%) (100 ppm) (Aphis craccivora) | also measured |
| --- | --- | --- | --- | --- | --- |
| COC1CC(C)C([N+](=O)[O-])=C2N(Cc3ccc(Cl)nc3)CCN21 (stereo not shown) [Compound 2, 1-((6-chloropyridin-3-yl)methyl)-5-methoxy-7-methyl-8-nitro-1,2,3,5,6,7-hexahydroimidazo[1,2-a]pyridine] | – | – | – | – | mortality at 500 ppm (Aphis craccivora): 98%; mortality at 500 ppm (Nilaparvata lugens): 100% |
| CCOC1CC([N+](=O)[O-])=C2N(Cc3ccc(Cl)nc3)CCN2C1O (stereo not shown) [Compound 47] | 98% | 91% | – | – | – |
| CCC1C([N+](=O)[O-])=C2N(Cc3ccc(Cl)nc3)CCN2C(O)C1C (stereo not shown) [Compound 35] | 100% | 88% | – | – | – |
| CC(=O)OC1CC(C)C([N+](=O)[O-])=C2N(Cc3ccc(Cl)nc3)CCN21 (stereo not shown) [Compound 11, 1-((6-chloropyridin-3-yl)methyl)-7-methyl-8-nitro-1,2,3,5,6,7-hexahydroimidazo[1,2-a]pyridin-5-yl acetate] | – | – | – | – | mortality at 500 ppm (Aphis craccivora): 93%; mortality at 500 ppm (Nilaparvata lugens): 100% |
| CC1CC([N+](=O)[O-])=C2N(Cc3ccc(Cl)nc3)CCN2C1O (stereo not shown) [g] | – | – | 36.3 ppm | 92% | – |
| CC1CC([N+](=O)[O-])=C2N(Cc3ccc(Cl)nc3)CCN2C1O (stereo not shown) [Compound 18, 1-((6-chloropyridin-3-yl)methyl)-6-methyl-8-nitro-1,2,3,5,6,7-hexahydroimidazo[1,2-a]pyridin-5-ol] | – | – | – | – | mortality at 500 ppm (Aphis craccivora): 98%; mortality at 500 ppm (Nilaparvata lugens): 100% |
| CCOC1C(C)CC([N+](=O)[O-])=C2N(Cc3ccc(Cl)nc3)CCN21 (stereo not shown) [Compound 19] | 100% | 100% | – | – | – |
| COC1C([N+](=O)[O-])=C2N(Cc3ccc(Cl)nc3)CCN2C(O)C1C (stereo not shown) [Compound 43] | 100% | 97% | – | – | – |
| CCCC1CC([N+](=O)[O-])=C2N(Cc3ccc(Cl)nc3)CCN2C1OCC (stereo not shown) [Compound 29] | 100% | 97% | – | – | – |
| CCC1CC([N+](=O)[O-])=C2N(Cc3ccc(Cl)nc3)CCN2C1OC (stereo not shown) [k] | – | – | 83.0 ppm | 92% | – |
| CCCCCOC1CC(C)C([N+](=O)[O-])=C2N(Cc3ccc(Cl)nc3)CCN21 (stereo not shown) [Compound 8] | 67% | 80% | – | – | – |
| CCOC1CC([N+](=O)[O-])=C2N(Cc3ccc(Cl)nc3)CCN2C1O (stereo not shown) [q] | – | – | 70.9 ppm | 85% | – |
| C=CCOC1CC(C)C([N+](=O)[O-])=C2N(Cc3ccc(Cl)nc3)CCN21 (stereo not shown) [Compound 9] | 98% | 100% | – | – | – |
| CC(C)OC1CC(C)C([N+](=O)[O-])=C2N(Cc3ccc(Cl)nc3)CCN21 (stereo not shown) [e] | – | – | 20.5 ppm | 100% | – |
| CC1CC(O)N2CCN(Cc3cnc(Cl)s3)C2=C1[N+](=O)[O-] (stereo not shown) [f] | – | – | 68 ppm | 87% | – |
| CCOC1CC(C)C([N+](=O)[O-])=C2N(CC3CCOC3)CCN21 (stereo not shown) [Compound 17] | 89% | 100% | – | – | – |
| CCC1CC([N+](=O)[O-])=C2N(Cc3ccc(Cl)nc3)CCN2C1O (stereo not shown) [j] | – | – | 57.3 ppm | 93.6% | – |
| CCC1C([N+](=O)[O-])=C2N(Cc3ccc(Cl)nc3)CCN2C(O)C1C (stereo not shown) [m] | – | – | 75.9 ppm | 87% | – |
| CC1CC([N+](=O)[O-])=C2N(Cc3cnc(Cl)s3)CCN2C1O (stereo not shown) [Compound 21] | 90% | 100% | – | – | – |
| CCCC1CC(O)N2CCN(Cc3ccc(Cl)nc3)C2=C1[N+](=O)[O-] (stereo not shown) [Compound 24] | 97% | 89% | – | – | – |
| CC1CC(O)N2CCN(CC3CCOC3)C2=C1[N+](=O)[O-] (stereo not shown) [Compound 15] | 24% | 35% | – | – | – |
| CCOC1CC(C)C([N+](=O)[O-])=C2N(Cc3cnc(Cl)s3)CCN21 (stereo not shown) [Compound 13] | 98% | 100% | – | – | – |
| CC1C([N+](=O)[O-])=C2N(Cc3ccc(Cl)nc3)CCN2C(O)C1C (stereo not shown) [l] | – | – | 86.4 ppm | 66.7% | – |

Source: patent publication US20090111847A1, “PREPARATION METHOD AND USE OF COMPOUNDS HAVING HIGH INSECTICIDAL ACTIVITIES” (priority 2006, published 2009)
